According to ChEMBL document CHEMBL6153050, “Repurposing FDA-approved drugs to target G-quadruplexes in breast cancer” (Eur J Med Chem, 2025):
Each block holds one compound with its values, some of them ahead of it. Active and inactive are the calls of the source. The calls are words filed in the database; no cut-off is given here.

Key:
[1] = system: Quadruplex DNA; details: time 10.0 min
[2] = system: Quadruplex DNA; details: time 10.0 min; remark: listed apart in the source
[3] = system: Quadruplex RNA; details: time 10.0 min
[4] = system: Quadruplex RNA; details: time 10.0 min; remark: listed apart in the source
[5] = system: Quadruplex DNA; details: time 10.0 min; remark: listed apart in the source
[6] = system: Quadruplex DNA; details: time 10.0 min; remark: listed apart in the source
[7] = system: MCF7; assay: Cytotoxicity against human MCF7 cells assessed as reduction in cell viability incubated for 6 days by SRB assay; assay type: functional, cell-based; details: for IC25: time 6 day
[8] = system: Quadruplex DNA; assay: Stabilization of G4 quadruplex DNA (unknown origin) in human MCF7 cells at IC50 concentration incubated for 6 days by flow cytometric analysis; assay type: cell-based; details: time 6.0 day
[9] = system: MDA-MB-231; assay: Effect on cell cycle arrest in human MDA-MB-231 cells at IC50 concentration incubated for 6 days by PI staining based flow cytometric analysis; assay type: functional; details: time 6.0 day
[10] = system: MDA-MB-231; assay: Cytotoxicity against human MDA-MB-231 cells assessed as reduction in cell viability incubated for 6 days by SRB assay; assay type: functional, cell-based; details: for IC25: time 6 day
[11] = system: MCF7; assay: Effect on cell cycle arrest in human MCF7 cells at IC50 concentration incubated for 6 days by PI staining based flow cytometric analysis; assay type: functional; details: time 6.0 day
[12] = system: MDA-MB-231; assay: Cytotoxicity against human MDA-MB-231 cells assessed as reduction in cell viability at 20 uM incubated for 6 days by SRB assay; assay type: functional, cell-based; details: time 6.0 day
[13] = system: MCF7; assay: Effect on cell cycle arrest in human MCF7 cells at IC25 concentration incubated for 6 days by PI staining based flow cytometric analysis; assay type: functional; details: time 6.0 day
[14] = system: Quadruplex DNA; assay: Stabilization of G4 quadruplex DNA (unknown origin) in human MDA-MB-231 cells assessed as increase in G4 motif at IC50 concentration incubated for 6 days by flow cytometric analysis; assay type: cell-based; details: time 6.0 day
[15] = system: MCF7; assay: Induction of DNA damage in human MCF7 cells assessed as increase in gamma-H2AX level at IC50 concentration incubated for 6 days by flow cytometric analysis; assay type: functional, cell-based; details: time 6.0 day
[16] = system: MDA-MB-231; assay: Effect on cell cycle arrest in human MDA-MB-231 cells at IC25 concentration incubated for 6 days by PI staining based flow cytometric analysis; assay type: functional; details: time 6.0 day
[17] = system: MDA-MB-231; assay: Induction of DNA damage in human MDA-MB-231 cells assessed as increase in gamma-H2AX level at IC50 concentration incubated for 6 days by flow cytometric analysis; assay type: functional, cell-based; details: time 6.0 day
[18] = system: SK-BR-3; assay: Cytotoxicity against human SK-BR-3 cells assessed as reduction in cell viability at 20 uM incubated for 6 days by SRB assay; assay type: functional, cell-based; details: time 6.0 day
[19] = system: MCF7; assay: Induction of DNA damage in human MCF7 cells assessed as increase in gamma-H2AX level at IC25 concentration incubated for 6 days by flow cytometric analysis; assay type: functional, cell-based; details: time 6.0 day
[20] = system: Quadruplex DNA; assay: Stabilization of G4 quadruplex DNA (unknown origin) in human MCF7 cells at IC25 concentration incubated for 6 days by flow cytometric analysis; assay type: cell-based; details: time 6.0 day
[21] = system: Quadruplex DNA; assay: Stabilization of G4 quadruplex DNA (unknown origin) in human SK-BR-3 cells assessed as increase in G4 motif at IC50 concentration incubated for 6 days by flow cytometric analysis; assay type: cell-based; details: time 6.0 day
[22] = system: SK-BR-3; assay: Induction of cell cycle arrest in human SK-BR-3 cells assessed as accumulation of cells at G2/M phase at IC50 concentration incubated for 6 days by PI staining based flow cytometric analysis; assay type: functional; details: time 6.0 day
[23] = system: Quadruplex DNA; assay: Binding affinity to c-Myc G4 quadruplex DNA (TGAGGGTGGGTAGGGTGGGTAA) (unknown origin) assessed as equilibrium binding constant (Ka) by ITC analysis; assay type: nucleic-acid assay
[24] = system: Quadruplex DNA; assay: Binding affinity to c-Myc G4 quadruplex DNA (TGAGGGTGGGTAGGGTGGGTAA) (unknown origin) assessed as Gibbs free energy by ITC analysis; assay type: nucleic-acid assay
[25] = system: MDA-MB-231; assay: Induction of cell cycle arrest in human MDA-MB-231 cells assessed as reduction in G1 phase at IC25 concentration incubated for 6 days by PI staining based flow cytometric analysis; assay type: functional; details: time 6.0 day
[26] = system: SK-BR-3; assay: Cytotoxicity against human SK-BR-3 cells assessed as reduction in cell viability incubated for 6 days by SRB assay; assay type: functional, cell-based
[27] = system: Quadruplex DNA; assay: Binding affinity to c-Myc G4 quadruplex DNA (TGAGGGTGGGTAGGGTGGGTAA) (unknown origin) assessed as change in entropy by ITC analysis; assay type: nucleic-acid assay
[28] = system: SK-BR-3; assay: Induction of cell cycle arrest in human SK-BR-3 cells assessed as accumulation of cells at G2/M phase at IC25 concentration incubated for 6 days by PI staining based flow cytometric analysis; assay type: functional; details: time 6.0 day
[29] = system: Quadruplex DNA; assay: Binding affinity to HER2 G4 quadruplex DNA (GGAGAAGGAGGAGGTGGAGGAGGAGGG) (unknown origin) assessed as change in entropy by ITC analysis; assay type: nucleic-acid assay
[30] = system: SK-BR-3; assay: Induction of DNA damage in human SK-BR-3 cells assessed as increase in gamma-H2AX level at IC25 concentration incubated for 6 days by flow cytometric analysis; assay type: functional, cell-based; details: time 6.0 day
[31] = system: Quadruplex DNA; assay: Binding affinity to HER2 G4 quadruplex DNA (GGAGAAGGAGGAGGTGGAGGAGGAGGG) (unknown origin) assessed as Gibbs free energy by ITC analysis; assay type: nucleic-acid assay
[32] = system: SK-BR-3; assay: Induction of DNA damage in human SK-BR-3 cells assessed as increase in gamma-H2AX level at IC50 concentration incubated for 6 days by flow cytometric analysis; assay type: functional, cell-based; details: time 6.0 day
[33] = system: Quadruplex DNA; assay: Binding affinity to c-Myc G4 quadruplex DNA (TGAGGGTGGGTAGGGTGGGTAA) (unknown origin) assessed as binding enthalpy by ITC analysis; assay type: nucleic-acid assay
[34] = system: MCF7; assay: Downregulation of c-MYC protein expression in human MCF7 cells at IC25 concentration incubated for 6 days by Western blotting analysis; assay type: functional, cell-based; details: time 6.0 day
[35] = system: Quadruplex DNA; assay: Binding affinity to HER2 G4 quadruplex DNA (GGAGAAGGAGGAGGTGGAGGAGGAGGG) (unknown origin) assessed as equilibrium binding constant (Ka) by ITC analysis; assay type: nucleic-acid assay
[36] = system: Quadruplex DNA; assay: Binding affinity to HER2 G4 quadruplex DNA (GGAGAAGGAGGAGGTGGAGGAGGAGGG) (unknown origin) assessed as binding enthalpy by ITC analysis; assay type: nucleic-acid assay
[37] = system: Quadruplex DNA; assay: Stabilization of G4 quadruplex DNA (unknown origin) in human MDA-MB-231 cells at IC50 concentration incubated for 6 days by flow cytometric analysis; assay type: cell-based; details: time 6.0 day
[38] = system: MDA-MB-231; assay: Induction of DNA damage in human MDA-MB-231 cells assessed as increase in gamma-H2AX level at IC25 concentration incubated for 6 days by flow cytometric analysis; assay type: functional, cell-based; details: time 6.0 day
[39] = system: Quadruplex DNA; assay: Stabilization of G4 quadruplex DNA (unknown origin) in human MDA-MB-231 cells at IC25 concentration incubated for 6 days by flow cytometric analysis; assay type: cell-based; details: time 6.0 day
[40] = Homo sapiens, MCF7, 144 h, read-out: IC25
[41] = Homo sapiens, MDA-MB-231, 144 h
[42] = Homo sapiens, MDA-MB-231, 144 h, read-out: IC25

- deltaTm1/2 [1]: 1 °C
- deltaTm1/2 [2]: 3 °C
- deltaTm1/2 [3]: 1.2 °C
- deltaTm1/2 [4]: 1 °C
- deltaTm1/2 [5]: 1.2 °C
- deltaTm1/2 [6]: 2.3 °C
SMILES: Cn1nnc(-c2ccc(-c3ccc(N4C[C@H](CO)OC4=O)cc3F)cn2)n1

- deltaTm1/2 [1]: 7.5 °C
- deltaTm1/2 [2]: 16.2 °C
- Ka [23]: 2.3 10^5/M
- deltaG [24]: -30.5 kJ/mol
- deltaTm1/2 [3]: 6.6 °C
- deltaTm1/2 [4]: 14.7 °C
- TdeltaS [27]: 7.5 kJ/mol
- TdeltaS [29]: 2.6 kJ/mol
- deltaTm1/2 [5]: 15.9 °C
- deltaG [31]: -30.6 kJ/mol
- deltaH [33]: -23 kJ/mol
- Ka [35]: 2.3 10^5/M
- deltaH [36]: -28 kJ/mol
- deltaTm1/2 [6]: 12.7 °C
SMILES: CC[C@@]1(O)C(=O)OCc2c1cc1n(c2=O)Cc2c-1nc1ccccc1c2CCNC(C)C [BELOTECAN]
- IC50 ([7]; Homo sapiens, MCF7, 144 h): 0.0012 µM
- IC25 [7]: 0.5 10^-3microM
- Activity [19]: Active; Slightly Lower Dna Damage Observed
- Activity [20]: Active
- Activity [21]: Active
- IC50 [10, 41]: 0.0024 µM
- IC25 [10]: 1.4 10^-3microM
- Activity [22]: Active
- Activity [25]: Active
- IC50 ([26]; Homo sapiens, SK-BR-3, 144 h): 2 nM
- IC25 ([26]; time 6 day): 0.9 10^-3microM
- Activity [28]: Active
- Activity [30]: Active; Slightly Lower Dna Damage Observed
- Activity [32]: Active; Slightly Lower Dna Damage Observed
- Activity [34]: Active
- Activity [15]: Active; Slightly Lower Dna Damage Observed

- deltaTm1/2 [1]: 5.8 °C
- deltaTm1/2 [2]: 6.2 °C
- deltaTm1/2 [3]: 0.6 °C
- deltaTm1/2 [4]: 4.9 °C
- deltaTm1/2 [5]: 1.5 °C
- deltaTm1/2 [6]: 4 °C
SMILES: CCc1cc2c(cc1CC)CC(NC[C@H](O)c1ccc(O)c3[nH]c(=O)ccc13)C2 [INDACATEROL]
- IC50 ([7]; Homo sapiens, MCF7, 144 h): 7.4 µM
- IC25 [7, 40]: 4.3 µM

- deltaTm1/2 [1]: 3.2 °C
- deltaTm1/2 [2]: 11 °C
- deltaTm1/2 [3]: 1.6 °C
- deltaTm1/2 [4]: 6.3 °C
- deltaTm1/2 [5]: 4 °C
- deltaTm1/2 [6]: 7.8 °C
SMILES: O=C(c1ccc(OCCN2CCCCC2)cc1)c1c(-c2ccc(O)cc2)sc2cc(O)ccc12 [RALOXIFENE]
- IC50 ([7]; Homo sapiens, MCF7, 144 h): 2.7 µM
- IC25 [7, 40]: 0.63 µM
- Activity [19]: inactive
- Activity [20]: inactive
- Activity [8]: inactive
- Activity [9]: inactive
- IC50 [10, 41]: 10.3 µM
- IC25 [10, 42]: 8.2 µM
- Activity [11]: inactive
- Activity [37]: inactive
- Activity [13]: inactive
- Activity [38]: inactive
- Activity [39]: inactive
- Activity [15]: inactive
- Activity [16]: inactive
- Activity [17]: inactive

Continued, compound first:

SMILES: COc1cc(O)c(C(=O)Nc2nc(C(=O)NCCN(C(C)C)C(C)C)cs2)cc1OC
- deltaTm1/2 [1]: 4.4 °C
- deltaTm1/2 [2]: 9.5 °C
- deltaTm1/2 [3]: 3.5 °C
- deltaTm1/2 [4]: 7.5 °C
- deltaTm1/2 [5]: 3.9 °C
- deltaTm1/2 [6]: 9.4 °C

SMILES: COc1ccc(-c2cc(=O)c3c(OC)c(OC)c(OC)cc3o2)cc1OC
- deltaTm1/2 [1]: 4 °C
- deltaTm1/2 [2]: 10.6 °C
- deltaTm1/2 [3]: 1.1 °C
- deltaTm1/2 [4]: 8.1 °C
- deltaTm1/2 [5]: 1.5 °C
- deltaTm1/2 [6]: 5.3 °C

SMILES: Cc1cc2ncc(C(=O)NCC(C)(C)NCC(=O)N3CCC[C@H]3C#N)cn2n1
- deltaTm1/2 [1]: 5.4 °C
- deltaTm1/2 [2]: 3.1 °C
- deltaTm1/2 [3]: 0.4 °C
- deltaTm1/2 [4]: 1.9 °C
- deltaTm1/2 [5]: -0.1 °C
- deltaTm1/2 [6]: -0.9 °C

SMILES: N[C@@H]1CCCCN(c2c(F)cc3c(=O)c(C(=O)O)cn(C4CC4)c3c2Cl)C1
- deltaTm1/2 [1]: 1.7 °C
- deltaTm1/2 [2]: 4.9 °C
- deltaTm1/2 [3]: 1.7 °C
- deltaTm1/2 [4]: 2.8 °C
- deltaTm1/2 [5]: 1.3 °C
- deltaTm1/2 [6]: -0.3 °C

SMILES: CN1CCCC(n2nc(Cc3ccc(Cl)cc3)c3ccccc3c2=O)CC1 (stereo not given) [AZELASTINE]
- IC50 ([7]; Homo sapiens, MCF7, 144 h): 10.3 µM
- IC25 [7, 40]: 5.8 µM
- deltaTm1/2 [1]: 5.3 °C
- deltaTm1/2 [2]: 17.1 °C
- Activity [8]: Active
- Activity [9]: inactive
- IC50 [10, 41]: 8.2 µM
- IC25 [10, 42]: 5.2 µM
- Activity [11]: inactive
- Activity [12]: Active
- Activity [13]: inactive
- deltaTm1/2 [3]: 2.3 °C
- deltaTm1/2 [4]: 9.6 °C
- deltaTm1/2 [5]: 7.7 °C
- Activity [14]: Active
- deltaTm1/2 [6]: 8.1 °C
- Activity [15]: Active
- Activity [16]: inactive
- Activity [17]: inactive
- Activity [18]: Active
